Measurements: patent EP0089139A2, “Antibiotics, their preparation and use” (BEECHAM GROUP PLC, priority 1982, dated 1983)
Converted amounts (≈) assume the structure as drawn. Where two headings read alike, the source gives them in different places.

What was measured:
Assay in all cases: standard MIC test
Format in all cases: cell-based
[1] = tested on: E.coli JT39; settings: Escherichia coli
Description: (§1) In a standard MIC test the following data were obtained.

[2] = tested on: Salmonella typhimurium CT10; settings: Salmonella enterica
Description: as §1

[3] = tested on: Staphylococcus aureus Russell
Description: as §1

[4] = tested on: Escherichia coli 0111
Description: as §1

| MIC ([1]; E.coli JT39, read-out: M.I.C) [µg/mL] | MIC ([2]; Salmonella typhimurium CT10, read-out: MIC) [µg/mL] | MIC ([3]; Staphylococcus aureus Russell, read-out: MIC) [µg/mL] | Compound | MIC ([1]; JT39) [µg/mL] | MIC ([2]; TYPHIMURIUM) [µg/mL] | MIC ([3]; Staphylococcus aureus) [µg/mL] | MIC [4] [µg/mL] |
| --- | --- | --- | --- | --- | --- | --- | --- |
| – | – | – | C[C@@H]1C(Sc2ncccn2)=C(C(=O)[O-])N2C(=O)[C@H]([C@@H](C)O)[C@@H]12.[Na+] [Example 30, Sodium (4S,5S,6S)-4-methyl-6-[(1R)-1-hydroxyethyl]-3-(pyrimidin-2-ylthio)-7-oxo-1-azabicyclo [3.2.0] hept-2-ene-2-carboxylate] | 0.8 | 3.1 | 0.8 | – |
| 1.6 (≈ 4.98 µM) | 6.2 (≈ 19.3 µM) | 0.4 (≈ 1.24 µM) | C[C@@H](O)[C@H]1C(=O)N2C(C(=O)O)=C(Sc3ncccn3)[C@H](C)[C@H]12 (racemic) [Example 40] | – | – | – | – |
| – | – | – | C[C@H](O)[C@@H]1C(=O)N2C(C(=O)[O-])=C(Sc3ncccn3)[C@H](C)[C@@H]12.[Na+] (racemic) [Example 16, Sodium (4RS,5RS,6RS)-4-methyl-6-[(1SR)-1-hydroxyethyl]-3-(pyrimidin-2-ylthio)-7-oxo-1-azabicyclo[3.2.0]hept-2-ene-2-carboxylate] | – | 1.6 | 0.4 | 1.6 |
